Where two headings read alike, the source gives them in different places.
What was measured:
[1] = tested on: Human breast cancer cell line T-47D; test: Caspase cascade activation assay (N-(Ac-DEVD)-N'-ethoxycarbonyl-R110 fluorogenic substrate) in T-47D cells; format: cell-based; conditions: for Caspase activity (Ratio) T-47D: 24 h incubation with compound, ratio of net RFU (T=3 h) of test compound to control; for EC50: 24 h incubation, sigmoidal dose-response, read-out: Caspase potency EC50 (nM) T-47D
Procedure, shortened: (§1)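 Cells were exposed for 24 h at 37 °C to test compound at 0.016–1 μM final. Lysed with lysolecithin buffer (pH 7.2, DTT) containing 20 μM Ac-DEVD-R110 substrate, and fluorescence (ex 485/em 530 nm) read at 0 and 3 h at room temperature. EC50 from sigmoidal fit of net RFU ratio to control.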

[2] = tested on: Human breast cancer cell line ZR-75-1; test: Caspase cascade activation assay (N-(Ac-DEVD)-N'-ethoxycarbonyl-R110 fluorogenic substrate) in ZR-75-1 cells; format: cell-based; conditions: ZR-75-1 cells; for EC50: 24 h incubation, sigmoidal dose-response, read-out: Caspase potency EC50 (nM) ZR-75-1; for Caspase activity (Ratio) ZR-75-1: 24 h incubation with compound, ratio of net RFU (T=3 h) of test compound to control
Procedure, shortened: as §1

Row | Compound | EC50 ([1]; Homo sapiens, T47D, 24 h) | EC50 ([2]; Homo sapiens, ZR-75-1, 24 h) | EC50 [1] | EC50 [2] | Caspase activity (Ratio) T-47D [1] | Caspase activity (Ratio) ZR-75-1 [2]
1 | Cc1cncc(C2C3=CC=C4N=CC=C4C3OC(N)=C2C#N)n1 (stereo not drawn) [Example 58, 2-Amino-3-cyano-4-(6-methyl-pyrazin-2-yl)-4H-indolo[4,5-b]pyran] | 2900 nM | 1630 nM |  |  | 4.1 | 7.0
2 | COc1cc(C2C(C#N)=C(N)Oc3cc(Cl)ccc32)cc(Br)c1OC (stereo not drawn) [Example 63, 2-Amino-4-(3-bromo-4,5-dimethoxy-phenyl)-7-chloro-3-cyano-4H-chromene] | 147 nM | 114 nM |  |  | 9.1 | 10.1
3 | COc1cc(C2C(C#N)=C(N)Oc3c2ccc2[nH]cnc32)cc(Br)c1OC (stereo not drawn) [Example 64, 2-Amino-3-cyano-4-(3-bromo-4,5-dimethoxy-phenyl)-4H-imidazo[4,5-h]chromene] |  |  | 28.8 nM | 13.2 nM | 8.0 | 4.8
4 | COc1cc(C2C(C#N)=C(N)Oc3cc(N4CCNCC4)ccc32)cc(Br)c1OC (stereo not drawn) [Example 66B, 2-Amino-3-cyano-7-piperazine-4-(3-bromo-4,5-dimethoxyphenyl)-4H-chromene] |  |  | 2910 nM | 1470 nM | 5.7 | 6.8
5 | COc1cc(C2C(C#N)=C(N)Oc3cc(N4CCOCC4)ccc32)cc(Br)c1OC (stereo not drawn) [Example 66C, 2-Amino-3-cyano-7-N-morpholine-4-(3-bromo-4,5-dimethoxyphenyl)-4H-chromene] |  |  | 166 nM | 86.8 nM | 10.4 | 7.4
6 | COc1cc(C2C(C#N)=C(N)Oc3cc(-n4cccc4)ccc32)cc(Br)c1OC (stereo not drawn) [Example 67, 2-Amino-3-cyano-7-pyrrole-4-(3-bromo-4,5-dimethoxyphenyl)-4H-chromene] |  |  | 349 nM | 148 nM | 9.2 | 6.9
7 | COc1cc(C2(C)C(C#N)=C(N)Oc3cc(N(C)C)ccc32)cc(Br)c1OC (stereo not drawn) [Example 68A, 2-Amino-3-cyano-7-dimethylamino-4-(3-bromo-4,5-dimethoxyphenyl)-4-methylchromene] | 1980 nM | 1470 nM |  |  | 6.8 | 6.5
8 | C1CCNCC1.C1CCNCC1.COc1cc(C2C(C#N)=C(N)Oc3c2ccc2[nH]ccc32)cc(Br)c1OP(=O)(O)O (stereo not drawn) [Example 69, 2-Amino-3-cyano-4-(3-bromo-4-phosphoric acid-dipiperidine salt-5-methoxyphenyl)-4H-indolo[4,5-b]pyran] |  |  | 582 nM | 284 nM | 3.5 | 5.6
9 | N#CC1=C(N)Nc2ccccc2C1c1ccccc1 (stereo not drawn) [Example 71, 2-Amino-3-cyano-4-phenyl-1,4-dihydroquinoline] | 7850 nM | 3720 nM |  |  | 3.1 | 4.1
10 | COc1cc(C2C(C#N)=C(N)Oc3c2ccc(N)c3O)cc(Br)c1OC (stereo not drawn) [Example 74, 2-Amino-3-cyano-7-amino-8-hydroxy-4-(3-bromo-4,5-dimethoxyphenyl)-4H-chromene] | 149 nM | 99.3 nM |  |  | 7.4 | 8.9
11 | COc1cccc(C2C(C#N)=C(N)Oc3c2ccc2nccnc32)c1 (stereo not drawn) [Example 78, 2-Amino-3-cyano-4-(3-methoxyphenyl)-4H-pyrazino[2,3-h]chromene] |  |  | > 1000 nM | 537 nM | 1.8 | 3.6
12 | COc1cc(C2C(C#N)=C(N)Oc3c2ccc2nccnc32)cc(Br)c1OC (stereo not drawn) [Example 79, 2-Amino-3-cyano-4-(3-bromo-4,5-dimethoxy-phenyl)-4H-pyrazino [2,3-h]chromene] |  |  | 209 nM | 103 nM | 8.3 | 10.2
13 | COc1cc(C2C(C#N)=C(N)Oc3c2ccc2[nH]c(=O)[nH]c32)cc(Br)c1OC (stereo not drawn) [Example 80, 2-Amino-3-cyano-4-(3-bromo-4,5-dimethoxy-phenyl)-8-oxo-4,7,8,9-tetrahydroimidazo[4,5-h]chromene] |  |  | 50.5 nM | 21.5 nM | 8.8 | 7.5

Second part, led by results:

Row | EC50 ([1]; Homo sapiens, T47D, 24 h) | EC50 ([2]; Homo sapiens, ZR-75-1, 24 h) | EC50 [1] | EC50 [2] | Compound | Caspase activity (Ratio) T-47D [1] | Caspase activity (Ratio) ZR-75-1 [2]
14 | > 10000 nM | > 10000 nM |  |  | N#CC1=C(N)OC2C3=CC=NC3=CC=C2C1c1cnc2ccccc2n1 (stereo not drawn) [Example 59, 2-Amino-3-cyano-4-(quinoxalin-2-yl)-4H-indolo[4,5-b]pyran] | 1.1 | 1.2
15 | 388 nM | 57 nM |  |  | N#CC1=C(N)OC2C(=CC=C3C=CN=C32)C1c1cncc(C#N)c1 (stereo not drawn) [Example 60, 2-Amino-3-cyano-4-(5-cyano-pyridin-3-yl)-4H-indolo[7,6-b]pyran] | 6.7 | 5.5
16 | 2900 nM | 1630 nM |  |  | Cc1cncc(C2C3=CC=C4C=CN=C4C3OC(N)=C2C#N)n1 (stereo not drawn) [Example 61, 2-Amino-3-cyano-4-(6-methyl-pyrazin-2-yl)-4H-indolo[7,6-b]pyran] | 4.1 | 7.0
17 | 144 nM | 75.3 nM |  |  | COc1cc(C2C(C#N)=C(N)Oc3cc(Br)ccc32)cc(Br)c1OC (stereo not drawn) [Example 62, 2-Amino-7-bromo-4-(3-bromo-4,5-dimethoxy-phenyl)-3-cyano-4H-chromene] | 6.6 | 6.0
18 |  |  | > 1000 nM | 570 nM | COc1cc(C2C(C#N)=C(N)Oc3c2ccc2[nH]c(C)nc32)cc(Br)c1OC (stereo not drawn) [Example 65, 2-Amino-3-cyano-4-(3-bromo-4,5-dimethoxy-phenyl)-8-methyl-4H-imidazo[4,5-h]-chromene] | 1.5 | 6.0
19 |  |  | 110 nM | 79.4 nM | COc1cc(C2C(C#N)=C(N)Oc3cc(N4CCCC4)ccc32)cc(Br)c1OC (stereo not drawn) [Example 66A, 2-Amino-3-cyano-7-pyrrolidine-4-(3-bromo-4,5-dimethoxyphenyl)-4H-chromene] | 3.7 | 6.0
20 | > 10000 nM | > 10000 nM |  |  | CC1(c2ccccc2)C(C#N)=C(N)Oc2ccccc21 (stereo not drawn) [Example 68B, 2-Amino-3-cyano-4-phenyl-4-methylchromene] | 1.0 | 1.8
21 | 90.7 nM | 45.3 nM |  |  | COc1cccc(C2C(C#N)=C(N)Sc3cc(OC)ccc32)c1 (stereo not drawn) [Example 70, 2-Amino-3-cyano-7-methoxy-4-(3-methoxyphenyl)-4H-thiochromene] | 9.1 | 6.6
22 |  |  | 29.4 nM | 26.7 nM | COC(=O)C1=C(N)Oc2c(ccc3[nH]ccc23)C1c1cc(Br)c(OC)c(OC)c1 (stereo not drawn) [Example 73] | 7.5 | 9.0
23 | > 10000 nM | 4100 nM |  |  | CNC1=C(C#N)C(c2cc(Br)c(OC)c(OC)c2)c2ccc3ccn(C)c3c2O1 (stereo not drawn) [Example 76, 3-Cyano-4-(3-bromo-4,5-dimethoxyphenyl)-2-methylamino-9-methyl-4H-pyrrolo[3,2-h]chromene] | 2.0 | 2.3
24 | 27.7 nM | 23.9 nM |  |  | COc1cc(C2C(C#N)=C(N)Oc3c2ccc2ccn(C)c32)cc(Br)c1OC (stereo not drawn) [Example 77, 2-Amino-4-(3-bromo-4,5-dimethoxyphenyl)-3-cyano-9-methyl-4H-pyrrolo[3,2-h]chromene] | 4.2 | 3.1
